Data published in patent US20250041461A1, “[177LU] LUTETIUM-PSMA I&T COMPOSITION AND DOSIMETRY, KIT, METHOD OF MAKING, AND METHOD OF USING THEREOF” (Curium US LLC, priority 2023, published 2025).

Assay: Eclipse PK and dosimetry sub-study, 27 patients, cycle 1 biodistribution and dosimetry (SPECT/CT, OLINDA 2.2.3)
Type: in vivo, human
Conditions: for Absorbed Dose Mean (SD): ECLIPSE, after Cycle 1; for Absorbed Dose in Cycle 1, Mean / Absorbed Dose in Cycle 1, min: N = 16
Source text: Data Acquisition: All participating sites underwent a rigorous site setup process during which all dose calibrators, scanners, and gamma counters used in the sub-study were calibrated. Sites were allowed to enroll patients in the sub-study only after the completion and approval of all site setup processes by Invicro.
Patients underwent SPECT/CT imaging, with anatomical coverage typically extending from the salivary glands to the pelvis, following the administration of a targeted 7.4±10% GBq of ^177Lu-PSMA-I&T at cycle 1. SPECT/CT imaging was performed at four timepoints: 4 h, 24 h, 48 h, and 168 h post-injection. Additionally, a subset of patients imaged at Cycle 1 (16 out of 27), were also imaged at Cycle 3 (Table 7 in Appendix 1).
Image acquisition and reconstruction protocols were standardized across all imaging timepoints and patients at each site. Furthermore, each site consistently utilized the same SPECT/CT scanner throughout the duration of the study to ensure uniformity.
In general, raw projection data was acquired into a 128×128 matrix with medium energy general purpose (MEGP) collimation using a step and shoot acquisition mode, acquiring 60 projections per detector (180 degrees rotation per detector), 20 seconds per projection, with an acquisition zoom of 1.0, and a 20% (±10%) energy window centered over 208 keV.
A low-dose CT scan was performed prior to beginning the SPECT scan for attenuation correction. Sites were instructed to use the Institutional standard parameters for acquisition of the low-dose CT. Institutional standard reconstruction parameters were used. Scatter correction was required to be applied using a 20% (±10%) scatter window centered over 170 keV.
The imaging data was analysed using Invicro's VivoQuant software, a validated software used in a 21 CFR § 11-compliant workflow. The general quantification approach was based on the principles detailed in the Medical Internal Radiation Dose (MIRD) Pamphlet No. 16,^1 No 23,2 and No 26,3 as appropriate.
SPECT images were calibrated in units of Becquerel (Bq) using a calibration factor derived from a source of known activity, measured during site set up with the same acquisition and reconstruction parameters employed for patient imaging. A patient-specific calibration factor was also derived at each clinical time point after acquisition of the patient SPECT/CT. As a quality control measure, if the patient-specific calibration factor differed by more than 10% from the site set up calibration factor, an investigation was conducted.
Volume of interest (VOI) (kidneys, bladder, liver, lumbar vertebrae L2-L4, lacrimal glands, salivary glands [parotid and submandibular glands], and whole body) were delineated on each dataset by a trained image analyst. […] Organs were segmented either by drawing the entire contour of the organ, or by placing a sphere in a representative region of the organ and then multiplying by the organ's effective mass (based on patient's height and weight).^4 Segmentation methods for each organ are specified in Table 1 and were consistently applied to each patient.
Clearance of the radiopharmaceutical was derived from a data-appropriate fit of each organ's TAC. Depending on the TAC's shape, the data was fitted with the sum of one, two, or three exponentials, or using a rise and fall model. Fitting was performed with in-house Python software. TIACs were calculated through analytical integration of the curve fit extrapolated to infinity. […] A whole-body TAC was derived from delineating the imaged body. The remainder activity was determined by subtracting the cumulative organ TIACs from the whole body TIAC.
Organ TIACs were input into OLINDA 2.2.3 for the computation of organ and whole-body absorbed doses, using International Commission on Radiological Protection (ICRP)-103 weighing factors. The ICRP-89 derived male phantom was used for dose estimation. […]

[1] = Cycle 1, n = 26, patient 12-004 excluded
[2] = Lacrimal Glands (OLINDA sphere model)

O=C([O-])CC[C@H](NC(=O)N[C@@H](CCCCNC(=O)CCCCCCC(=O)NCCCC[C@@H](NC(=O)[C@@H](Cc1ccccc1)NC(=O)[C@@H](Cc1ccc(O)c(I)c1)NC(=O)CC[C@H](C(=O)[O-])N1CCN(CC(=O)[O-])CCN(CC(=O)[O-])CCN(CC(=O)[O-])CC1)C(=O)[O-])C(=O)[O-])C(=O)[O-].[177Lu+3].[H+].[H+].[H+].[H+].[H+] [^177Lu-PSMA I&T, (3S,7S,26R,29R,32R,37R)-29-benzyl-32-(4-hydroxy-3-iodobenzyl)-5,13,20,28,31,34-hexaoxo-37-(4,7,10-tris(carboxymethyl)-1,4,7,10-tetraazacyclododecan-1-yl)-4,6,12,21,27,30,33-heptaazaheptatriacontane-1,3,7,26,37-pentacarboxylic acid; lutetium-177 (III)]
Absorbed Dose Mean (SD) (Bladder): 0.41 (0.05) Gy/GBq
Absorbed Dose Mean (SD) (Bone Marrow): 0.08 (0.12) Gy/GBq
Absorbed Dose, Adrenals, Mean (Cycle 1, n = 26): 0.02 Gy/GBq
Absorbed Dose, Adrenals, max (Cycle 1, n = 26): 0.08 Gy/GBq
Absorbed Dose, Adrenals, median (Cycle 1, n = 26): 0.02 Gy/GBq
Absorbed Dose, Adrenals, min (Cycle 1, n = 26): 0.01 Gy/GBq
Absorbed Dose, Brain, Mean (Cycle 1, n = 26): 0.01 Gy/GBq
Absorbed Dose, Brain, max (Cycle 1, n = 26): 0.07 Gy/GBq
Absorbed Dose, Brain, median (Cycle 1, n = 26): 0.01 Gy/GBq
Absorbed Dose, Brain, min (Cycle 1, n = 26): 0.00 Gy/GBq
Absorbed Dose, Esophagus, Mean (Cycle 1, n = 26): 0.02 Gy/GBq
Absorbed Dose, Esophagus, max (Cycle 1, n = 26): 0.07 Gy/GBq
Absorbed Dose, Esophagus, median (Cycle 1, n = 26): 0.01 Gy/GBq
Absorbed Dose, Esophagus, min (Cycle 1, n = 26): 0.00 Gy/GBq
Absorbed Dose, Eyes, Mean (Cycle 1, n = 26): 0.01 Gy/GBq
Absorbed Dose, Eyes, max (Cycle 1, n = 26): 0.07 Gy/GBq
Absorbed Dose, Eyes, median (Cycle 1, n = 26): 0.01 Gy/GBq
Absorbed Dose, Eyes, min (Cycle 1, n = 26): 0.00 Gy/GBq
Absorbed Dose, Gallbladder wall, Mean (Cycle 1, n = 26): 0.02 Gy/GBq
Absorbed Dose, Gallbladder wall, max (Cycle 1, n = 26): 0.07 Gy/GBq
Absorbed Dose, Gallbladder wall, median (Cycle 1, n = 26): 0.01 Gy/GBq
Absorbed Dose, Gallbladder wall, min (Cycle 1, n = 26): 0.00 Gy/GBq
Absorbed Dose, Heart wall, Mean (Cycle 1, n = 26): 0.02 Gy/GBq
Absorbed Dose, Heart wall, max (Cycle 1, n = 26): 0.07 Gy/GBq
Absorbed Dose, Heart wall, median (Cycle 1, n = 26): 0.01 Gy/GBq
Absorbed Dose, Heart wall, min (Cycle 1, n = 26): 0.00 Gy/GBq
Absorbed Dose, Kidneys, Mean (Cycle 1, n = 26): 0.41 Gy/GBq
Absorbed Dose, Kidneys, max (Cycle 1, n = 26): 0.81 Gy/GBq
Absorbed Dose, Kidneys, median (Cycle 1, n = 26): 0.37 Gy/GBq
Absorbed Dose, Kidneys, min (Cycle 1, n = 26): 0.17 Gy/GBq
Absorbed Dose, Lacrimal Glands, Mean (Cycle 1, n = 26): 0.40 Gy/GBq
Absorbed Dose, Lacrimal Glands, max (Cycle 1, n = 26): 1.19 Gy/GBq
Absorbed Dose, Lacrimal Glands, median (Cycle 1, n = 26): 0.26 Gy/GBq
Absorbed Dose, Lacrimal Glands, min (Cycle 1, n = 26): 0.04 Gy/GBq
Absorbed Dose, Left colon, Mean (Cycle 1, n = 26): 0.47 Gy/GBq
Absorbed Dose, Left colon, max (Cycle 1, n = 26): 1.53 Gy/GBq
Absorbed Dose, Left colon, median (Cycle 1, n = 26): 0.41 Gy/GBq
Absorbed Dose, Left colon, min (Cycle 1, n = 26): 0.01 Gy/GBq
Absorbed Dose, Liver, Mean (Cycle 1, n = 26): 0.04 Gy/GBq
Absorbed Dose, Liver, max (Cycle 1, n = 26): 0.10 Gy/GBq
Absorbed Dose, Liver, median (Cycle 1, n = 26): 0.03 Gy/GBq
Absorbed Dose, Liver, min (Cycle 1, n = 26): 0.01 Gy/GBq
Absorbed Dose, Lungs, Mean (Cycle 1, n = 26): 0.01 Gy/GBq
Absorbed Dose, Lungs, max (Cycle 1, n = 26): 0.07 Gy/GBq
Absorbed Dose, Lungs, median (Cycle 1, n = 26): 0.01 Gy/GBq
Absorbed Dose, Lungs, min (Cycle 1, n = 26): 0.00 Gy/GBq
Absorbed Dose, Osteogenic cells, Mean (Cycle 1, n = 26): 0.05 Gy/GBq
Absorbed Dose, Osteogenic cells, max (Cycle 1, n = 26): 0.29 Gy/GBq
Absorbed Dose, Osteogenic cells, median (Cycle 1, n = 26): 0.02 Gy/GBq
Absorbed Dose, Osteogenic cells, min (Cycle 1, n = 26): 0.00 Gy/GBq
Absorbed Dose, Pancreas, Mean (Cycle 1, n = 26): 0.02 Gy/GBq
Absorbed Dose, Pancreas, max (Cycle 1, n = 26): 0.07 Gy/GBq
Absorbed Dose, Pancreas, median (Cycle 1, n = 26): 0.01 Gy/GBq
Absorbed Dose, Pancreas, min (Cycle 1, n = 26): 0.00 Gy/GBq
Absorbed Dose, Prostate, Mean (Cycle 1, n = 26): 0.02 Gy/GBq
Absorbed Dose, Prostate, max (Cycle 1, n = 26): 0.07 Gy/GBq
Absorbed Dose, Prostate, median (Cycle 1, n = 26): 0.01 Gy/GBq
Absorbed Dose, Prostate, min (Cycle 1, n = 26): 0.01 Gy/GBq
Absorbed Dose, Rectum, Mean (Cycle 1, n = 26): 0.44 Gy/GBq
Absorbed Dose, Rectum, max (Cycle 1, n = 26): 1.46 Gy/GBq
Absorbed Dose, Rectum, median (Cycle 1, n = 26): 0.39 Gy/GBq
Absorbed Dose, Rectum, min (Cycle 1, n = 26): 0.01 Gy/GBq
Absorbed Dose, Red Marrow, Mean (Cycle 1, n = 26): 0.08 Gy/GBq
Absorbed Dose, Red Marrow, max (Cycle 1, n = 26): 0.49 Gy/GBq
Absorbed Dose, Red Marrow, median (Cycle 1, n = 26): 0.03 Gy/GBq
Absorbed Dose, Red Marrow, min (Cycle 1, n = 26): 0.00 Gy/GBq
Absorbed Dose, Right Colon, max (Cycle 1, n = 26): 0.82 Gy/GBq
Absorbed Dose, Right Colon, median (Cycle 1, n = 26): 0.22 Gy/GBq
Absorbed Dose, Right Colon, min (Cycle 1, n = 26): 0.01 Gy/GBq
Absorbed Dose, Right colon, Mean (Cycle 1, n = 26): 0.25 Gy/GBq
Absorbed Dose, Small intestine, Mean (Cycle 1, n = 26): 0.05 Gy/GBq
Absorbed Dose, Small intestine, max (Cycle 1, n = 26): 0.15 Gy/GBq
Absorbed Dose, Small intestine, median (Cycle 1, n = 26): 0.04 Gy/GBq
Absorbed Dose, Small intestine, min (Cycle 1, n = 26): 0.01 Gy/GBq
Absorbed Dose, Spleen, Mean (Cycle 1, n = 26): 0.03 Gy/GBq
Absorbed Dose, Spleen, max (Cycle 1, n = 26): 0.11 Gy/GBq
Absorbed Dose, Spleen, median (Cycle 1, n = 26): 0.02 Gy/GBq
Absorbed Dose, Spleen, min (Cycle 1, n = 26): 0.01 Gy/GBq
Absorbed Dose, Stomach Wall, Mean (Cycle 1, n = 26): 0.02 Gy/GBq
Absorbed Dose, Stomach Wall, max (Cycle 1, n = 26): 0.07 Gy/GBq
Absorbed Dose, Stomach Wall, median (Cycle 1, n = 26): 0.01 Gy/GBq
Absorbed Dose, Stomach Wall, min (Cycle 1, n = 26): 0.00 Gy/GBq
Absorbed Dose, Testes, Mean (Cycle 1, n = 26): 0.01 Gy/GBq
Absorbed Dose, Testes, max (Cycle 1, n = 26): 0.07 Gy/GBq
Absorbed Dose, Testes, median (Cycle 1, n = 26): 0.01 Gy/GBq
Absorbed Dose, Testes, min (Cycle 1, n = 26): 10.00 Gy/GBq
Absorbed Dose, Thymus, Mean (Cycle 1, n = 26): 0.01 Gy/GBq
Absorbed Dose, Thymus, max (Cycle 1, n = 26): 0.07 Gy/GBq
Absorbed Dose, Thymus, median (Cycle 1, n = 26): 0.01 Gy/GBq
Absorbed Dose, Thymus, min (Cycle 1, n = 26): 0.00 Gy/GBq
Absorbed Dose, Thyroid, Mean (Cycle 1, n = 26): 0.01 Gy/GBq
Absorbed Dose, Thyroid, max (Cycle 1, n = 26): 0.07 Gy/GBq
Absorbed Dose, Thyroid, median (Cycle 1, n = 26): 0.01 Gy/GBq
Absorbed Dose, Thyroid, min (Cycle 1, n = 26): 0.00 Gy/GBq
Absorbed Dose, Total Body, Mean (Cycle 1, n = 26): 0.02 Gy/GBq
Absorbed Dose, Total Body, max (Cycle 1, n = 26): 0.09 Gy/GBq
Absorbed Dose, Total Body, median (Cycle 1, n = 26): 0.02 Gy/GBq
Absorbed Dose, Total Body, min (Cycle 1, n = 26): 0.01 Gy/GBq
Absorbed Dose, Urinary Bladder wall, Mean (Cycle 1, n = 26): 0.41 Gy/GBq
Absorbed Dose, Urinary Bladder wall, max (Cycle 1, n = 26): 0.50 Gy/GBq
Absorbed Dose, Urinary Bladder wall, median (Cycle 1, n = 26): 0.41 Gy/GBq
Absorbed Dose, Urinary Bladder wall, min (Cycle 1, n = 26): 0.33 Gy/GBq
absorbed dose, kidneys (Cycle 1, n = 26): 0.41±0.15 Gy/GBq
absorbed dose, left colon (Cycle 1, n = 26): 0.47±0.31 Gy/GBq
absorbed dose, rectum (Cycle 1, n = 26): 0.44±0.30 Gy/GBq
absorbed dose, urinary bladder (Cycle 1, n = 26): 0.41±0.05 Gy/GBq
Absorbed Dose, Salivary Glands, Mean [1]: 0.19 Gy/GBq
Absorbed Dose, Salivary Glands, max [1]: 0.80 Gy/GBq
Absorbed Dose, Salivary Glands, median [1]: 0.15 Gy/GBq
Absorbed Dose, Salivary Glands, min [1]: 0.03 Gy/GBq
Absorbed Dose Mean (SD) (Heart): 0.02 (0.02) Gy/GBq
Absorbed Dose Mean (SD) (Kidneys): 0.41 (0.15) Gy/GBq
Absorbed Dose in Cycle 1, Mean [2]: 0.39 Gy/GBq
Absorbed Dose in Cycle 1, min [2]: 0.04 Gy/GBq
Absorbed Dose Mean (SD) (Lacrimal Glands): 0.40 (0.36) Gy/GBq
Absorbed Dose Mean (SD) (Left Colon): 0.47 (0.31) Gy/GBq
Absorbed Dose Mean (SD) (Liver): 0.04 (0.02) Gy/GBq
Absorbed Dose in Cycle 1, min (Liver): 0.0 Gy/GBq
Absorbed Dose Mean (SD) (Right Colon): 0.25 (0.17) Gy/GBq
Absorbed Dose Mean (SD) (Salivary Glands): 0.19 (0.16) Gy/GBq
Absorbed Dose Mean (SD) (Spleen): 0.03 (0.02) Gy/GBq
Absorbed Dose in Cycle 1, Mean (Testes): 0.0 Gy/GBq
Absorbed Dose Mean (SD) (Thyroid): 0.01 (0.02) Gy/GBq
Absorbed Dose in Cycle 1, Mean (Urinary Bladder wall): 0.40 Gy/GBq
absorbed dose, lacrimal glands (cycle 1): 0.40±0.36 Gy/GBq
mean absorbed dose, bone marrow (red marrow) (cycle 1, image-based (L2-L4)): 0.08±0.12 Gy/GBq
absorbed dose, salivary glands (cycle 1, patient 12-004 excluded): 0.19±0.16 Gy/GBq
